“Also recorded” adds a separate entry of the source.
How the values were obtained:
[1] = system: plasma creatine; assay: Plasma creatine levels (exploratory biomarker for mitochondrial disease); format: in vivo, human; conditions: p=0.15
Protocol: (§1) Intracellular reduced glutathione (GSH) serves as the cell's principal endogenous antioxidant. Leigh syndrome and other mitochondrial diseases are associated with decreased GSH levels as the high level of oxidative stress and free oxygen radicals deplete cellular GSH reserves. In order to verify alpha-tocotrienol quinone mechanism of action and to correlate this action with clinical benefit, intracellular (lymphocyte) glutathione levels were measured in all patients. The ratio of recued-to-oxidized glutathione and reduced glutathione to total glutathione levels were calculated to assess the effect of alpha-tocotrienol quinone on repleting reduced intracellular glutathione. In addition, total serum thiol levels were measured prior to and following initiation of treatment. Plasma creatine levels—an exploratory biomarker for mitochondrial disease—was also obtained.

[2] = system: intracellular (lymphocyte) glutathione; assay: HPLC determination of lymphocyte glutathione forms (GSH, GS-Pro, GSSG) in treated Leigh syndrome patients; format: in vivo, human
Protocol: The determination of the different forms of GSH obtained from lymphocytes can be performed in a manner similar to the method previously reported by Pastore et al. (Clin. Chem. (Washington, D.C.) 44, 825-832 (1998)). Briefly, 30 μl of 4 M NaBH4, 20 μl of 2 mM EDTA/DTT, 10 μl of 1-octanol and 20 μl of 1.8 M HCl are placed in the derivatization vial containing 30 μl of sample. After the mixture is incubated for three min, 100 μl of 1.5 M N-ethylmorpholine buffer, pH 8.0, 400 μl of distilled water, and 20 μl of 25 mM bromobimane are added. After an additional three-min incubation, 40 μl of acetic acid are added and 20 μl (for free GSH) or 80 μl (for GSSG and GS-Pro) of this mixture are injected into the column. The thiol derivatives are quantified by HPLC (Agilent Technologies 1100 HPLC with a fluorescence detector-excitation at 390 nm and an emission at 478 nm). The analytes are separated for detection using a C18 column (Hypersil ODS; 150×4.6 mm, 3 micron) at 1.5 ml/min using an aqueous phase of aqueous 30 mM ammonium nitrate and 40 mM ammonium formate at pH 3.6 with an increasing acetonitrile gradient. HPLC determinations of the various forms of GSH are carried out on lymphocytes sonicated three times for two sec in 0.1 ml of 0.1 M potassium-phosphate buffer, pH 7.2 using a Model VC 130 Vibra Cell™ ultrasonic processor. For free GSH determinations, 100 μl of 12% sulfosalicylic acid are added to 50 μl of cells lysate, and analytes content on the acid-soluble fraction are determined. The protein pellet is dissolved in 150 μl of 0.1 N NaOH, and protein bound glutathione (GS-Pro) determined. For GSSG determination, cells are sonicated in the presence of 5 mM N-ethylmaleimide (NEM); 100 μl of 12% sulfosalicylic acid are added to 50 μl homogenates, and analytes content on the acid-soluble fraction are determined. Protein concentrations are quantified by BCA-protein assay.
as §1
For lymphocytes and erythrocyte isolation from whole blood, venous blood samples were layered on the top of a discontinuous gradient consisting of 3 ml of Hystopaque®-1119 and 3 mL of Hystopaque®-1077. Gradients were centrifuged at 750 g for 40 min at 4° C. The lymphocyte layer was transferred to a 15 ml centrifuge tube, diluted to a volume of 10 ml with 0.9% NaCl and centrifuged at 750 g for 40 min. The supernatant was removed and, if necessary, the lysis of erythrocytes was performed by adding 2 ml H2O. After 90 s, 2 ml of 1.8% NaCl solution was added and cells washed four times with 0.9% NaCl. The pellet of lymphocytes was centrifuged at 750 g for 10 min and stored at −80° C. until HPLC analysis.
The determination of the different forms of GSH obtained from lymphocytes was performed, with little modification to a method previously reported (Pastore, A., et al. Clin. Chem. (Washington, D.C.) 44, 825-832 (1998)). Briefly, 30 μl of 4 M NaBH4, 20 μl of 2 mM EDTA/DTT, 10 μl of 1-octanol and 20 μl of 1.8 M HCl were placed in the derivatization vial containing 30 μl of sample. […]

[3] = Plasma trough drug concentration in Leigh syndrome subjects; format: in vivo; conditions: 100 mg three times daily, eight hours post dosing
Protocol: (§2) The initial clinical dose was selected based on laboratory and human patient pharmacokinetic modeling data. Specifically, a three-compartment model for oral administration was employed that included GI absorption delay, as well as one central and one peripheral compartment. A plasma trough drug concentration was targeted 10-20 fold above the ˜10 nM in vitro EC50 value of alpha-tocotrienol quinone that protected Leigh syndrome (SURF1) primary cells against glutathione depletion-mediated apoptotic cell death. Based on serum values of alpha-tocotrienol quinone obtained in two Leigh syndrome subjects after a single 100 mg dose of alpha-tocotrienol quinone was administered, a clinical dose of 100 mg three times daily was calculated and selected as the initial dose. […] This was consistent with the in vitro target dose and was confirmed in multiple pediatric subjects with inherited mitochondrial disease (Enns, G. M., et al., Mol. Genet. Metab. 105, 91-102 (2012); Blankenberg, F., et al., Ann. Neurol. 70, S148-S148 (2011)). This dose was also safely below the preclinical no observed adverse effect level (NOAEL).

[4] = system: total serum thiol levels; assay: Total thiols in serum/plasma (DTNB, spectrophotometric); format: in vivo, human; conditions: three-month time point; p=0.008
Protocol: as §1
Total thiols were determined in plasma following the method reported by M.-L. Hu (Methods Enzymol. 233, 380-385 (1994)). 50 μl plasma was mixed with 1 ml of the Tris-EDTA buffer and the absorbance at 412 nm was measured. Then, 20 μl of 10 mM DTNB were added. After 15 min incubation at room temperature, the absorption at 412 nm (ε=13,600 cm^−1M^−1) was measured together with a DTNB blank.

[5] = system: children with genetically-confirmed Leigh syndrome; assay: Safety and tolerability in the Leigh syndrome trial; format: in vivo, human
Protocol: There were three serious adverse events due to intercurrent illness during the three month trial (two cases of bronchitis and one case of salmonellosis, all resolved). […] All recorded values were within the normal range for the clinical laboratories used for the analysis.
All subjects received 100 mg of alpha-tocotrienol quinone three times daily orally or via gastrostomy tube. Total treatment length was three months, with an extension phase for children who completed the initial treatment period. All adverse and serious adverse events were tracked in the trial database. In addition, all held doses due to intolerance of alpha-tocotrienol quinone or any other reason were also recorded.

[6] = system: Leigh syndrome (SURF1) primary cells; assay: In vitro protection of patient primary cells against glutathione depletion-mediated apoptotic cell death; format: cell-based, human
Protocol: as §2

[7] = system: children with genetically-confirmed Leigh syndrome; assay: Phase 2 single arm subject-controlled trial in children with Leigh syndrome: clinical outcome scales (NPMDS, GMFM, PedsQL, MD-CRS); format: in vivo, human
[8] = LS patients after six-months treatment, n = 10
[9] = three months, 100 mg orally three times daily, p=0.01

## CC(C)=CCC/C(C)=C/CC/C(C)=C/CC[C@@](C)(O)CCC1=C(C)C(=O)C(C)=C(C)C1=O [alpha-tocotrienol quinone]
[1]
  plasma creatine, overall average decrease: 20.2 points
[2]; [8]
  GS-Pro, lymphocytes, median: 0.57 nmol/mg proteins
  GSH, lymphocytes, median: 28.92 nmol/mg proteins
  GSSG, lymphocytes, median: 1.47 nmol/mg proteins
  Tot GSH, lymphocytes, median: 32.47 nmol/mg proteins
[2]; all patients, over treatment time
  overall glutathione charge (GSSG/GSH and GSSG/total glutathione ratios), FIG. 2: rapid normalization
[2]; decrease from baseline ratio mean 3.1+/-2.1, p=0.005
  oxidized-to-reduced glutathione levels after treatment: 0.25
[2]; in most of the patients
  time to changes in reduced glutathione levels and oxidized-to-reduced glutathione ratios: ≤ 4 weeks
[2]; in several subjects, preceding clinical response
  time to biochemical response (glutathione charge): within two weeks
[2]; increase from 8.5 at baseline, p=0.002
  reduced glutathione in isolated lymphocytes after treatment: 25.1 nmol/mg cell protein
[2]; reduction, p=0.005
  oxidized glutathione after treatment: 0.25 nmol/mg cell protein
[3]
  average trough concentration: ~200 nM
[4]
  total serum thiol levels, mean change: 0.14
[5]; three month trial
  clinical chemistry laboratory parameters incl. liver and kidney function tests and coagulation parameters: no abnormalities
  other reported adverse conditions: mild sleepiness and hypotonia
[5]; three month trial, two bronchitis, one salmonellosis, all resolved
  serious adverse events due to intercurrent illness: three
[5]; three months, 100 mg three times daily
  drug related adverse events: No drug related adverse events; also recorded: not associated with any drug-induced adverse events
[6]
  EC50: ~10 nM
[7]; all children, three months, regardless of age, genotype, severity
  clinical disease progression: arrest of disease progression and reversal
[7]; patient 1, before continued treatment to six months
  NPMDS score, patient 1, earlier value: 23.5
[7]; patient 1, treated for six months
  NPMDS score, patient 1, later value: 21.1
[7]; patient 2, at six months, increased from 7.6
  GMFM score, patient 2: 19.8
[7]; patient 2, before continued treatment to six months
  NPMDS score, patient 2, earlier value: 54
[7]; patient 2, following three months of treatment
  change in GMFM score, patient 2: no change
[7]; patient 2, treated for six months
  NPMDS score, patient 2, later value: 46
[7]; patient 3, before continued treatment to six months
  NPMDS score, patient 3, earlier value: 27.8
[7]; patient 3, treated for six months
  NPMDS score, patient 3, later value: 25.7
[7]; patient 7, score 97.5 prior to treatment (maximum 100)
  change in GMFM score, patient 7: did not change
[7]; prior to vs following three months of treatment
  clinical outcomes (NPMDS, neuromuscular function, health related quality of life, dystonia and spasticity), FIG. 1: significant improvement
[7]; three months
  average improvement in total NPMDS score from baseline: 25%
[7]; three months, 100 mg orally three times daily, p=0.005
  NPMDS sections 1-3 (organ system function), mean improvement: 7.1
[7]; [9]
  GMFM, mean improvement: 8.9
  NPMDS section 4 (quality of life), average improvement: 4.6
[7]; three months, 100 mg orally three times daily, p=0.03
  PedsQL Neuromuscular Module, mean improvement: 14.6
[7]; three months, secondary endpoint
  Movement Disorder-Childhood Rating Scale (MD-CRS), improvement in each child: one class
[7]; universal and durable
  time to clinical response: within eight weeks

— patent US20150216820A1, “QUINONE DERIVATIVES FOR USE IN THE MODULATION OF REDOX STATUS OF INDIVIDUALS” (Edison Pharmaceuticals, Inc., priority 2012, published 2015)
